From patent publication US20120129872A1, “FUSED HETEROARYL INHIBITORS OF PRO-MATRIX METALLOPROTEINASE ACTIVATION” (priority 2010, published 2012) come the findings set out here.

Assay [1] concerns the target T1, full-length proMMP9(1-707) (SEQ ID NO:1), activation by catalytic MMP3 (Homo sapiens, UniProt P14780, R574P).
T1 construct: made in house; host or cells: HEK293 (transient, secreted)
Kind of assay: ProMMP9/MMP3 DQ Gelatin Activation Assay. In kind it is biochemical. Particulars: read-out: ProMMP9/MMP3 DQ gel Activation Assay, IC50. The text has this:
ProMMP9/MMP3 DQ Gelatin Activation Assay

Assay [2] deals with T2, proMMP9(20-445;ΔFnII) (SEQ ID NO:6) (Homo sapiens, UniProt P14780, DEL216-390).
T2 construct: start methionine (N); made in house; host or cells: E. coli BL21(DE3) RIL
T2 sequence (P14780 with tags, fused parts or gaps DEL216-390): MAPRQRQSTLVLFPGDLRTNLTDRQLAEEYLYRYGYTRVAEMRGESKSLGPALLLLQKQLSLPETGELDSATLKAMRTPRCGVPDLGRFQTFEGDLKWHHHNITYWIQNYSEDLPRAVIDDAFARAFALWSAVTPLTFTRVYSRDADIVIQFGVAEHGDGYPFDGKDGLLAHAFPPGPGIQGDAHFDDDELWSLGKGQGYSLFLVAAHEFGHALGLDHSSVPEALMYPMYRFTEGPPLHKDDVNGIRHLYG
Kind of assay: ThermoFluor binding assay with proMMP9(20-445;ΔFnII). As for the experimental part: (§1) The ThermoFluor® (TF) assay is a 384-well plate-based binding assay that measures thermal stability of proteins (Biomol Screen 2001, 6, 429-40; Biochemistry 2005, 44, 5258-66). The experiments were carried out using instruments available from Johnson & Johnson Pharmaceutical Research & Development, LLC. TF dye used in all experiments was […] (1,8-ANS) (Invitrogen: A-47).
(§2) Compounds were arranged in a pre-dispensed plate (Greiner Bio-one: 781280), wherein compounds were serially diluted in 100% DMSO across 11 columns within a series. Columns 12 and 24 were used as DMSO reference and contained no compound. For multiple compound concentration-response experiments, the compound aliquots ([…]) were robotically predispensed directly into black 384-well polypropylene PCR microplates (Abgene: TF-0384/k) using a Cartesian Hummingbird liquid handler (DigiLab, Holliston, Mass.). Following compound dispense, protein and dye solutions were added to achieve the final assay volume of 3 μL. The assay solutions were overlayed with 1 μL of silicone oil (Fluka, type DC 200: 85411) to prevent evaporation.
(§3) Assay plates were robotically loaded onto a thermostatically controlled PCR-type thermal block and then heated from 40 to 90° C. at a ramp-rate of 1° C./min for all experiments. Fluorescence was measured by continuous illumination with UV light (Hamamatsu LC6) supplied via fiber optics and filtered through a band-pass filter (380-400 nm; >60D cutoff). Fluorescence emission of the entire 384-well plate was detected by measuring light intensity using a CCD camera (Sensys, Roper Scientific) filtered to detect 500±25 nm, resulting in simultaneous and independent readings of all 384 wells. A single image with 20-sec exposure time was collected at each temperature, and the sum of the pixel intensity in a given area of the assay plate was recorded vs temperature and fit to standard equations to yield the Tm (J Biomol Screen 2001, 6, 429-40).
(§4) Thermodynamic parameters necessary for fitting compound binding for each proMMP were estimated by differential scanning calorimetry (DSC) and from ThermoFluor® data. The heat capacity of unfolding for each protein was estimated from the molecular weight and from ThermoFluor® dosing data.
ThermoFluor® with proMMP9(20-445;ΔFnII (SEQ ID NO:6)
The protein sample preparations included a desalting buffer exchange step via a PD-10 gravity column (GE Healthcare). The desalting buffer exchange was performed prior to diluting the protein to the final assay concentration of 2.8 μM proMMP9(20-445;ΔFnII) (SEQ ID NO:6). The concentration of proMMP9(20-445;ΔFnII) (SEQ ID NO:6) was determined spectrophotometrically based on a calculated extinction coefficient of ε280=39880 M^−1 cm^−1, a calculated molecular weight of 28.2 kDa, and calculated pI of 5.5. ThermoFluor® reference conditions were define as follows: 80 μg/mL (2.8 μM) proMMP9(20-445;ΔFnII) (SEQ ID NO:6), 50 μM 1,8-ANS, pH 7.0 Buffer (50 mM HEPES pH 7.0, 100 mM NaCl, 0.001% Tween-20, 2.5 mM MgCl2, 300 μM CaCl2). The thermodynamic parameters for proMMP9(20-445;ΔFnII) (SEQ ID NO:6) are as follows: Tm (° C.)=72 (+/−0.1), ΔUH(Tm) (cal mol^−1)=160000(+/−5000), ΔUS(Tm) (cal mol^−1 K^−1)=434, ΔUCp (cal mol^−1 K^−1)=2400.
A general note: DSF heats the sample and reads unfolding from a dye or from intrinsic fluorescence.

Assay [3] concerns the target T3, proMMP9(67-444;ΔFnII) (SEQ ID NO:5) (Homo sapiens, UniProt P14780, DEL216-390).
T3 construct: start methionine (N); made in house; host or cells: E. coli BL21(DE3) RIL
T3 sequence (P14780 with tags, fused parts or gaps DEL216-390): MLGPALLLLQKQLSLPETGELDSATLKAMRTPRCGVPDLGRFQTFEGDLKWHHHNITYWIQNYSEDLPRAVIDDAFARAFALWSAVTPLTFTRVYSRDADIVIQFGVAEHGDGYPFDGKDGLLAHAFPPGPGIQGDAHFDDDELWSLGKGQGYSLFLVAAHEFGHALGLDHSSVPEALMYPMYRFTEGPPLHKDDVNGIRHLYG
Kind of assay: ThermoFluor binding assay with proMMP9(67-444;ΔFnII). As for the experimental part:
as §1, §2, §3, §4
ThermoFluor® with proMMP9(67-444;ΔFnII (SEQ ID NO:5)
The protein sample preparations had to include a desalting buffer exchange step via a PD-10 gravity column (GE Healthcare). The desalting buffer exchange was performed prior to diluting the protein to the final assay concentration of 3.5 μM proMMP9(67-444;ΔFnII) (SEQ ID NO:5). The concentration of proMMP9(67-444;ΔFnII) (SEQ ID NO:5) was determined spectrophotometrically based on a calculated extinction coefficient of ε280=33900 M^−1 cm^−1, a calculated molecular weight of 22.6 kDa, and calculated pI of 5.20. ThermoFluor® reference conditions were defined as follows: 80 μg/mL (3.5 μM) proMMP9(67-444;ΔFnII) (SEQ ID NO:5), 50 μM 1,8-ANS, pH 7.0 Buffer (50 mM HEPES pH 7.0, 100 mM NaCl, 0.001% Tween-20, 2.5 mM MgCl2, 300 μM CaCl2). The thermodynamic parameters for proMMP9(67-444;ΔFnII) (SEQ ID NO:5) are as follows: Tm (° C.)=63 (+/−0.1), ΔUH(Tm) (cal mol^−1)=105000(+/−5000), ΔUS(Tm) (cal mol^−1 K^−1)=450, ΔuCp (cal mol^−1 K^−1)=2000.

Assay [4] concerns the target T1, full-length proMMP9(1-707) (SEQ ID NO:1), activation by catalytic MMP3. Kind of assay: proMMP9/MMP3 P126 Activation Assay. The assay is classed as biochemical. As for the experimental part:
proMMP9/MMP3 P126 Activation Assay
The reaction volume was 50 μL. […] Reactivity of residual MMP3 towards P-126 substrate was minimal under these conditions.

The target of assay [5] is T4, proMMP13(1-268) (SEQ ID NO:7), activation by plasmin (Homo sapiens, UniProt P45452).
T4 construct: 6×-histidine tag (C); made in house; host or cells: HEK293 (transient, secreted)
Kind of assay: ProMMP13/Plasmin P126 Activation Assay. The assay is classed as biochemical. As to the method: ProMMP13/Plasmin P126 Activation Assay
On the day of assay, proMMP13(1-268) (SEQ ID NO:7) purified from HEK293 cells and plasmin were diluted to 160 nM and 320 nM, respectively, in assay buffer. The reaction volume was 50 μL. […] The plate was sealed and incubated for 40 min at 37° C. […] Plasmin was not reactive towards P-126 substrate under these conditions.

Assay [6] has as its target T5, proMMP13(1-268) (SEQ ID NO:7) (Homo sapiens, UniProt P45452).
T5 construct: 6×-histidine tag (C); made in house; host or cells: HEK293 (transient, secreted)
Kind of assay: ThermoFluor binding assay with proMMP13(1-268). As to the method: as §1, §2, §3, §4
ThermoFluor® with proMMP13(1-268) (SEQ ID NO: 7)
The proMMP13(1-268) (SEQ ID NO:7) protein sample preparations included a desalting buffer exchange step via a PD-10 gravity column (GE Healthcare). The desalting buffer exchange was performed prior to diluting the protein to the final assay concentration of 3.5 μM. The concentration of proMMP13(1-268) (SEQ ID NO:7) was estimated spectrophotometrically based on a calculated extinction coefficient of ε280=37000 M^−1 cm^−1, a calculated molecular weight of 30.8 kDa, and calculated pI of 5.33. ThermoFluor® reference conditions were defined as follows: 100 μg/mL proMMP13(1-268) (SEQ ID NO:7), 25 μM 1,8-ANS, pH 7.0 Buffer (50 mM HEPES pH 7.0, 100 mM NaCl, 0.001% Tween-20, 2.5 mM MgCl2, 300 μM CaCl2). The thermodynamic parameters for proMMP13(1-268) (SEQ ID NO:7) are as follows: Tm (° C.)=67 (+/−0.1), ΔUH(Tm) (cal mol^−1)=107000(+/−5000), ΔUS(Tm) (cal mol^−1 K^−1)=318, ΔUCp (cal mol^−1 K^−1)=2600.

Where only a bound is given, the exact number is not on record here.

T1 sequence (P14780 20-707 R574P): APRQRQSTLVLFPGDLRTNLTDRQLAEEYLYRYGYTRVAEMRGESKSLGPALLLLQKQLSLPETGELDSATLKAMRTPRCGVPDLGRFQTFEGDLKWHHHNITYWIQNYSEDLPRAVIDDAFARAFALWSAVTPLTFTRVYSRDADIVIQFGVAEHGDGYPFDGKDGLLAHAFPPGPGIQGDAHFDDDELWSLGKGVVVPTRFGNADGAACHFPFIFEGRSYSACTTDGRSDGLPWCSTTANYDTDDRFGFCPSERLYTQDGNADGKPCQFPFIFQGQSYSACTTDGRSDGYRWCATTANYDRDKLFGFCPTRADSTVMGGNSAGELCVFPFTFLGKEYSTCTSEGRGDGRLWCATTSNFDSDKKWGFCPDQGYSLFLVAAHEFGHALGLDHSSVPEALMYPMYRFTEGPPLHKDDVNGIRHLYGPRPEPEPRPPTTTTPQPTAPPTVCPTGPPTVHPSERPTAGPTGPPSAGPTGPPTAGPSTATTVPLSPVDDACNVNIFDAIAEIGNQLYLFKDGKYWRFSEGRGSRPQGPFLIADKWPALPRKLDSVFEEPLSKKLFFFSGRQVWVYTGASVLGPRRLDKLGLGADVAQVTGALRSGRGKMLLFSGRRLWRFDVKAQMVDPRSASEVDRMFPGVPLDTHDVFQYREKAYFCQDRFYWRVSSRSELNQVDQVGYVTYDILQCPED

Consider `COc1ccc([N+](=O)[O-])cc1Nc1nc(-c2cnc3ccccn23)cs1` [Example 28, (4-Imidazo[1,2-a]pyridin-3-yl-thiazol-2-yl)-(2-methoxy-5-nitro-phenyl)-amine], for which the IC50 in assay [1] came to 5000 nM. The Kd (usually the constant that tells how readily two partners part at equilibrium) in assay [2] was greater than 29000 nM; in assay [3], greater than 28000 nM.

Regarding `CC(C)Oc1ccc(C(N)=O)cc1Nc1nc(-c2ccc3c(c2)ncn3C)cs1` [Example 8, 4-Isopropoxy-3-[4-(1-methyl-1H-benzoimidazol-5-yl)-thiazol-2-ylamino]-benzamide], the IC50 in assay [4] was determined as 150 nM; in assay [5] it was 900 nM. Further, the results for the Kd in assay [2] and in assay [3] were 30 nM and 330 nM, respectively.

For `Cc1nc2ccc(Cl)cn2c1-c1csc(Nc2cc(C(N)=O)ccc2OC(C)C)n1` [Example 6, 3-[4-(6-Chloro-2-methyl-imidazo[1,2-a]pyridin-3-yl)-thiazol-2-ylamino]-4-isopropoxy-benzamide], the IC50 in assay [4] was 640 nM. Moreover, the figures for the Kd in assay [2], in assay [6] and in assay [3] were 490 nM, 1100 nM and 17000 nM, respectively.
